How the values were obtained:
Assay in all cases: THT disappearance with recombinant cDNA-expressed enzyme microsomes
Assay type in all cases: in vitro ADME
Conditions in all cases: 25μM THT, 35pmol CYP/mL
[1] = target: T1, CYP2C8 (Homo sapiens, UniProt P10632)
T1 construct: purchased BD Biosciences; host or cells: baculovirus infected insect cells
T1 sequence (P10632 1-490): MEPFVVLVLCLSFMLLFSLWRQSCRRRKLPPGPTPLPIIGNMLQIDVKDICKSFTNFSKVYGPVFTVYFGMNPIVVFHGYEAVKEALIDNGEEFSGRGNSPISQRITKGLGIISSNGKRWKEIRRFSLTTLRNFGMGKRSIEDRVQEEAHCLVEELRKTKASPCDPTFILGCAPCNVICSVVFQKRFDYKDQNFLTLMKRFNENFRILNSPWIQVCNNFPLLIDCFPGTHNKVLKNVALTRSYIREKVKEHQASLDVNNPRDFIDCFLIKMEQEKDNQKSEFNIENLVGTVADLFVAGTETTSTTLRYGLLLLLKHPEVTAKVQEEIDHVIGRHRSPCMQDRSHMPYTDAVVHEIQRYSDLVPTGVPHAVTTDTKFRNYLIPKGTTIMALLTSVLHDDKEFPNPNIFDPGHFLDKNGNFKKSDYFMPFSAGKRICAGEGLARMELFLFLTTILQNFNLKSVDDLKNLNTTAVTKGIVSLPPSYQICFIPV
Experimental: (§1) To identify the enzymes involved in Bu metabolism, 11 microsomal batches (BD Biosciences, Stockholm, Sweden), each containing a separate cDNA-expressed enzyme, were incubated with 25μM THT. The microsomes contained FMO3, CYP1A1, CYP1A2, CYP2B6, CYP2C8, CYP2C9, CYP2C19, CYP2D6, CYP2E1, CYP3A4 or CYP4A11. Time curves (0, 5, 15, 30 and 60min) were performed at a concentration of 0.35mg protein /mL for FMO3 and 35pmol CYP/mL for the CYP enzymes. The recombinant enzymes were produced from human cDNA expressing each of them using baculovirus expression system. Baculovirus infected insect cells were used to prepare these microsomes.
(§2) Incubations were performed in triplicate and negative controls (excluding NADPH, microsomes, THT or by terminating the incubations before the addition of NADPH) were run in parallel.
(§3) To measure THT and the secondary metabolite, sulfolane, the reactions were terminated by adding dichloromethane. Samples (180μL) were added to 10μM nicotine (20μL, Merck, Hoherbrunn, Germany), used as an internal standard, before extraction. The matrix was extracted by liquid-liquid extraction with dichloromethane (equal volumes, 200μL) after 30 sec of high speed vortexing. After extraction and centrifugation at 16000 g for 10 min, the organic phase was transferred into GC-MS tubes. […] Samples (180μL) were added to 10 μM of 3-methylsulfolane (20μL, TCI, Tokyo, Japan), used as an internal standard. The matrix was lyophilized (< 1 mbar at 40°C under N2 stream) to dryness, the residue was dissolved in 10 μL water and 200 μL of ethyl acetate was added for extraction. Samples were vortexed for 30 sec at high speed and centrifuged at 16000 g for 10 min. The organic phase was transferred to GC-MS tubes.
(§4) Concentrations of THT and its metabolites were measured using GC-MS [18] after validation for use with microsomal incubations according to the international guidelines.

[2] = target: T2, CYP2E1 (Homo sapiens, UniProt P05181)
T2 construct: purchased BD Biosciences; host or cells: baculovirus infected insect cells
Experimental: as §1, §2, §3, §4

[3] = target: T3, CYP3A4 (Homo sapiens, UniProt P08684)
T3 construct: purchased BD Biosciences; host or cells: baculovirus infected insect cells
Experimental: as §1, §2, §3, §4

[4] = target: T4, CYP4A11 (Homo sapiens, UniProt Q02928)
T4 construct: purchased BD Biosciences; host or cells: baculovirus infected insect cells
T4 sequence (Q02928 5-519): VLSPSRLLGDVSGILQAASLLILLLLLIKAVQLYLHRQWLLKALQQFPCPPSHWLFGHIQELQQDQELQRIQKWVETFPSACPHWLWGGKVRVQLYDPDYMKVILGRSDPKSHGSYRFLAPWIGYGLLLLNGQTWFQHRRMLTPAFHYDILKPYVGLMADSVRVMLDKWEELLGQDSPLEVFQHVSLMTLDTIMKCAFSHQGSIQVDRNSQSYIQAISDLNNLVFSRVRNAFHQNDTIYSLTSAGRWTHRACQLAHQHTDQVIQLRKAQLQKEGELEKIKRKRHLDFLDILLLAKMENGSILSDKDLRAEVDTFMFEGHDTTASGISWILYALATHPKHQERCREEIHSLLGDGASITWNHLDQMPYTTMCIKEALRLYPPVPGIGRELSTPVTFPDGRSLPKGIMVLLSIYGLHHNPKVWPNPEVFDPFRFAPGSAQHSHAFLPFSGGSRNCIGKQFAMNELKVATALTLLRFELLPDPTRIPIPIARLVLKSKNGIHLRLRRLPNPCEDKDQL
Experimental: as §1, §2, §3, §4

T2 sequence (P05181 whole entry): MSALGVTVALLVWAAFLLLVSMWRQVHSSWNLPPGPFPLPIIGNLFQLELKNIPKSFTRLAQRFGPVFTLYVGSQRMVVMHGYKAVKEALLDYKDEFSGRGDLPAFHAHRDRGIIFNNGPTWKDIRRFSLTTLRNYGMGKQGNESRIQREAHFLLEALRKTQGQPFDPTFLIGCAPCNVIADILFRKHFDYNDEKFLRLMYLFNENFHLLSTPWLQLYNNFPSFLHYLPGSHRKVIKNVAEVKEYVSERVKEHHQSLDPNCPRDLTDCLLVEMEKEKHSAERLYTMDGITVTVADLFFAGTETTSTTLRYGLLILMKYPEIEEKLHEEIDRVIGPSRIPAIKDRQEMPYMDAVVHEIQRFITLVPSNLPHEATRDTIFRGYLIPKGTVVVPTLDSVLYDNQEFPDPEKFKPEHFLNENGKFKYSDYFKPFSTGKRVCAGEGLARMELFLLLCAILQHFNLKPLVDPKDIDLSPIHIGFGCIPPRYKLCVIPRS
T3 sequence (P08684 whole entry): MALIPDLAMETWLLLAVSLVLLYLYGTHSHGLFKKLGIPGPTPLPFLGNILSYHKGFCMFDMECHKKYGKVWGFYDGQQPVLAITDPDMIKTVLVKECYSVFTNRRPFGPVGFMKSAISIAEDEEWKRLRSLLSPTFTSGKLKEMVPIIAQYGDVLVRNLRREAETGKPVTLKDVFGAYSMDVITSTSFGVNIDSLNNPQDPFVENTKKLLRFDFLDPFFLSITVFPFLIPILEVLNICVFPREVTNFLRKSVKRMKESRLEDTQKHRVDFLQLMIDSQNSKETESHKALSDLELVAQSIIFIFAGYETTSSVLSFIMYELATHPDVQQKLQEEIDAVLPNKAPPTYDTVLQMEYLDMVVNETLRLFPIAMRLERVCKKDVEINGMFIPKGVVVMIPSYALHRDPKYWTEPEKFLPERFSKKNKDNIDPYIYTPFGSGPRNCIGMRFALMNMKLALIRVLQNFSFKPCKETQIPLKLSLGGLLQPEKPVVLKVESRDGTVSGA

Structure (SMILES): C1CCSC1 [THT, tetrahydrothiophene]
- v0 [1]: 2.45 nmol/min/mL
- v0/CYP [1]: 0.07 nmol/min/pmol CYP
- v0 [2]: 1.41 nmol/min/mL
- v0/CYP [2]: 0.04 nmol/min/pmol CYP
- v0 [3]: 3.66 nmol/min/mL
- v0/CYP [3]: 0.11 nmol/min/pmol CYP
- v0 [4]: 2.52 nmol/min/mL
- v0/CYP [4]: 0.07 nmol/min/pmol CYP
